Data: patent EP0067084B1, “Eye-lotion compositions for the treatment of conjunctivitis and keratitis” (Laboratoires P.O.S. Société Anonyme dite:, priority 1981, dated 1982)

Experiments:
chien = assay: Chronic toxicity in the dog, oral, 13 weeks; type: in vivo; conditions: 35 mg/Kg/jour, 13 semaines
lapin = assay: Chronic toxicity in the rabbit, ocular instillation, 13 weeks; type: in vivo; conditions: instillation oculaire, 4 doses par jour, solution à 0,9 g (pour 100 ml), 13 semaines
[1] = Solubility (description of the product); type: physicochemical

Compound: CCCCCCCCCCCCOCCCN [Lopa, amino-1 dodécyloxy-3 propane]
- toxicité locale et/ou systématique (chien): aucune toxicité locale et/ou systématique
- toxicité locale et/ou systématique (lapin): aucune toxicité locale et/ou systématique
- solubility in water ([1]; eau): insoluble dans l'eau
- solubility in organic solvents ([1]; méthanol, chloroforme, acétone, benzène): soluble dans divers solvants organique
